Test results taken from US20260001928A1 (CORTERIA PHARMACEUTICALS, priority 2022, published 2026).
*1 amine or outer side, *2 acyl side, *3 side chain or, on linkers, in order; H or OH if unused. Where a SMILES comes first, the peptide text is derived from it. Side-chain parts run from the residue outwards. [ ]: non-standard residue; d: D form. The star is where a group is joined. C20 diacid = O=C(O)CCCCCCCCCCCCCCCCCCC(=O)*; C18 diacid = O=C(O)CCCCCCCCCCCCCCCCC(=O)*; C16 diacid = O=C(O)CCCCCCCCCCCCCCC(=O)*; γGlu = O=C(O)[C@H](CCC(=O)[*:2])N[*:1]; NMeI = CC[C@H](C)[C@H](NC)C(=O)O; αMeK = C[C@](N)(CCCCN)C(=O)O; Pentanoyl = CCCCC(=O)*; AEEA = NCCOCCOCC(=O)O; Aib = CC(C)(N)C(=O)O

Legend:
human CRF2a receptor = target: T1, human CRF2a receptor (Homo sapiens, UniProt Q13324); assay: Activity at human CRF2a receptor, cAMP functional assay in TeloHEAC cells; type: cell-based; conditions: TeloHEAC cells stably expressing human CRF2a receptor, relative to urocortin 2 (100 nM = 100%)
T1 construct: expressed in transfected cells; host or cells: TeloHEAC cells
T1 sequence (Q13324 1-411): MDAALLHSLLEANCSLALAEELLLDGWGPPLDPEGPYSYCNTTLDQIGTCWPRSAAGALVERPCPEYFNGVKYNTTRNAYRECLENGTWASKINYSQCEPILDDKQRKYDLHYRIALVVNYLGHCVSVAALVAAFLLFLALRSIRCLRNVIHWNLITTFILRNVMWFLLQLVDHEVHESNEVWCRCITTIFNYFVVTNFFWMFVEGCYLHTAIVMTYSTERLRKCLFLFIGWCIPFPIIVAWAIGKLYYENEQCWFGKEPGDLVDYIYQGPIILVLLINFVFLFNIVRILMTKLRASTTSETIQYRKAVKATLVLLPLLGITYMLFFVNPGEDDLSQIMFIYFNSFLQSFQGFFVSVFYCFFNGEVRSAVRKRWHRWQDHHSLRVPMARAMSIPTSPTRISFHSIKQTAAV
How it was run: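 TeloHEAC cells stably expressing human CRF2a (10000 cells/well, suspended in HBSS/20 mM HEPES with 2 mM IBMX) were exposed to compounds for 30 min at 37 °C. cAMP was read as the 665/620 nm fluorescence ratio after 1 h at room temperature. EC50 was derived relative to 100 nM urocortin 2, set as 100%.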

CFR1R receptor = target: T2, CFR1R receptor (Homo sapiens, UniProt P34998); assay: Activity at anti-target CFR1R receptor, cAMP assay in CRF1R-overexpression CHO-K1 cells; type: cell-based; conditions: 100% = Sauvagine at 100 nM; for EC50: cAMP
T2 construct: host or cells: CHO-K1 (clone 2)
T2 sequence (P34998 24-415): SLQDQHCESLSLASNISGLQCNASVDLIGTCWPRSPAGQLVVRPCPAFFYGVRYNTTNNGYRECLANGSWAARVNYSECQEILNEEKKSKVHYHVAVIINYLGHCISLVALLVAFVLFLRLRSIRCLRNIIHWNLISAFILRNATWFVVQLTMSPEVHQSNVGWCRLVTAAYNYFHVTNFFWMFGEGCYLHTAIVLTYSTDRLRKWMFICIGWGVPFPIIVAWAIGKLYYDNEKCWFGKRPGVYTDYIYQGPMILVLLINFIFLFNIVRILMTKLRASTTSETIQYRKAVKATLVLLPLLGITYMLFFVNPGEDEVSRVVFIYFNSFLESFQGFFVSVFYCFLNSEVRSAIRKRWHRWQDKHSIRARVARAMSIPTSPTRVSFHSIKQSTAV
How it was run: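 Signal is normalised to 100 nM Sauvagine, taken as 100% activation, in clone 2 cells plated at a final 4000 cells/well from frozen stocks.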

[1] = Chemical stability in buffer (pH 7.4 / pH 4.5), % purity loss; type: physicochemical; conditions: 40° C. vs 5° C., 14 or 28 days; for Buffer stability pH 4.5 % purity loss: 100 mM acetate buffer pH 4.5; for Buffer stability pH 7.4 % purity loss: 100 mM phosphate buffer pH 7.4
Procedure: Solubility and chemical stability were studied in 100 mM phosphate buffer (pH 7.4) and 100 mM acetate buffer (pH 4.5). Test compound powders were dissolved in both buffers at a target concentration of 10 mg/mL and incubated for 1 hour at room temperature. After centrifugation at 2500 rcf for 15 minutes, 10 μL of supernatant was diluted with 190 μL of the incubation buffer and analyzed by LC-UV (Acquity UPLC-DAD, Waters). Solubility was calculated by comparing the peak area of the test compound in the buffer sample with the peak area of the same compound dissolved at 0.5 mg/mL in water:acetonitrile 1:1, 0.1% formic acid.
From the centrifuged supernatant, two additional 80 μL aliquots were collected and diluted with 160 μL of incubation buffer. One aliquot was stored at 5° C., while the other was stored at 40° C. After 14 or 28 days, the samples were analyzed by LC-UV. Chemical stability was calculated as % loss using the following equations: […]

| Structure (SMILES) | EC50 (human CRF2a receptor) [nM] | Emax (% I) (CFR1R receptor) | EC50 (CFR1R receptor) [nM] | Buffer stability pH 4.5 % purity loss [1] | Buffer stability pH 7.4 % purity loss [1] [%] |
| --- | --- | --- | --- | --- | --- |
| CC[C@H](C)[C@H](NC(C)=O)C(=O)N[C@H](C(=O)N[C@@H](CC(C)C)C(=O)N[C@@H](CO)C(=O)N[C@@H](CC(C)C)C(=O)N[C@@H](CC(=O)O)C(=O)N[C@@H](C(=O)N1CCC[C@H]1C(=O)N[C@H](C(=O)N[C@@H](CCCCN)C(=O)N[C@@H](CC(C)C)C(=O)N[C@@H](CCCCNC(=O)CC[C@H](NC(=O)CCCCCCCCCCCCCCC(=O)O)C(=O)O)C(=O)N[C@@H](CCCCN)C(=O)N[C@H](C(=O)N[C@@H](CC(C)C)C(=O)N[C@@H](CC(C)C)C(=O)N[C@@H](CCC(=O)O)C(=O)N[C@@H](CCC(N)=O)C(=O)N[C@@H](CCC(=O)O)C(=O)N[C@@H](CCCCN)C(=O)N[C@@H](CCC(N)=O)C(=O)N[C@@H](CCCCN)C(=O)N[C@@H](CCCCN)C(=O)N[C@@H](CCC(N)=O)C(=O)N[C@@H](CCCNC(=N)N)C(=O)N[C@@H](CCC(=O)O)C(=O)N[C@@H](CCC(N)=O)C(=O)N[C@@H](C)C(=O)N[C@@H](CCC(=O)O)C(=O)N[C@H](C(=O)N[C@@H](CC(N)=O)C(=O)N[C@@](C)(CCCCN)C(=O)N[C@@H](CCC(N)=O)C(=O)N[C@H](C(=O)N[C@@H](CC(C)C)C(=O)N[C@@H](C)C(=O)N[C@@H](CCC(N)=O)C(=O)N[C@H](C(N)=O)C(C)C)[C@@H](C)CC)[C@@H](C)O)[C@@H](C)CC)[C@@H](C)CC)C(C)C)C(C)C [compound 54] (Ac-IVLSLD[dV]PIKLK([γGlu-C16 diacid])KILLEQEKQKKQREQAETN[αMeK]QILAQV-NH2) | 0.12 | 20 | > 250 | nd/0 ^ % | – |
| CC[C@H](C)[C@H](NC(=O)[C@H](CCC(N)=O)NC(=O)[C@H](CCCCN)NC(=O)[C@H](CC(N)=O)NC(=O)[C@@H](NC(=O)[C@H](CCC(=O)O)NC(=O)[C@H](C)NC(=O)[C@H](CCC(N)=O)NC(=O)[C@H](CCC(=O)O)NC(=O)[C@H](CCCNC(=N)N)NC(=O)[C@H](CCC(N)=O)NC(=O)[C@H](CCCCN)NC(=O)[C@H](CCCCN)NC(=O)[C@H](CCC(N)=O)NC(=O)[C@H](CCCCN)NC(=O)[C@H](CCC(=O)O)NC(=O)[C@H](CCC(N)=O)NC(=O)[C@H](CCC(=O)O)NC(=O)[C@H](CC(C)C)NC(=O)[C@H](CC(C)C)NC(=O)[C@@H](NC(=O)[C@H](CCCCN)NC(=O)[C@H](CCCCNC(=O)COCCOCCNC(=O)COCCOCCNC(=O)CC[C@H](NC(=O)CCCCCCCCCCCCCCCCC(=O)O)C(=O)O)NC(=O)[C@H](CC(C)C)NC(=O)[C@H](CCCCN)NC(=O)[C@@H](NC(=O)[C@@H]1CCCN1C(=O)[C@H](NC(=O)[C@H](CC(=O)O)NC(=O)[C@H](CC(C)C)NC(=O)[C@H](CO)NC(=O)[C@H](CC(C)C)NC(=O)[C@@H](N)C(C)C)C(C)C)[C@@H](C)CC)[C@@H](C)CC)[C@@H](C)O)C(=O)N[C@@H](CC(C)C)C(=O)N[C@@H](C)C(=O)N[C@@H](CCC(N)=O)C(=O)N[C@H](C(N)=O)C(C)C [compound 93] (H-VLSLD[dV]PIKLK([AEEA-AEEA-γGlu-C18 diacid])KILLEQEKQKKQREQAETNKQILAQV-NH2) | 5.08 | 6 | > 250 | 0% | 19 |
| CCCCC(=O)N[C@H](C(=O)N[C@@H](CC(C)C)C(=O)N[C@@H](CO)C(=O)N[C@@H](CC(C)C)C(=O)N[C@@H](CC(=O)O)C(=O)N[C@H](C(=O)N1CCC[C@H]1C(=O)N[C@H](C(=O)N[C@@H](CCCCN)C(=O)N[C@@H](CC(C)C)C(=O)N[C@@H](CCCCNC(=O)COCCOCCNC(=O)COCCOCCNC(=O)CC[C@H](NC(=O)CCCCCCCCCCCCCCCCC(=O)O)C(=O)O)C(=O)N[C@@H](CCCCN)C(=O)N[C@H](C(=O)N[C@@H](CC(C)C)C(=O)N[C@@H](CC(C)C)C(=O)N[C@@H](CCC(=O)O)C(=O)N[C@@H](CCC(N)=O)C(=O)N[C@@H](CCC(=O)O)C(=O)N[C@@H](CCCCN)C(=O)N[C@@H](CCC(N)=O)C(=O)N[C@@H](CCCCN)C(=O)N[C@@H](CCCCN)C(=O)N[C@@H](CCC(N)=O)C(=O)N[C@@H](CCCNC(=N)N)C(=O)N[C@@H](CCC(=O)O)C(=O)N[C@@H](CCC(N)=O)C(=O)N[C@@H](C)C(=O)N[C@@H](CCC(=O)O)C(=O)N[C@H](C(=O)N[C@@H](CC(N)=O)C(=O)N[C@@H](CCCCN)C(=O)N[C@@H](CCC(N)=O)C(=O)N[C@H](C(=O)N[C@@H](CC(C)C)C(=O)N[C@@H](C)C(=O)N[C@@H](CCC(N)=O)C(=O)N[C@H](C(N)=O)C(C)C)[C@@H](C)CC)[C@@H](C)O)[C@@H](C)CC)[C@@H](C)CC)C(C)C)C(C)C [compound 96] (Pentanoyl-VLSLDVPIKLK([AEEA-AEEA-γGlu-C18 diacid])KILLEQEKQKKQREQAETNKQILAQV-NH2) | 0.49 | 4 | > 250 | nd/0 ^ % | – |
| CC[C@H](C)[C@H](NC)C(=O)N[C@H](C(=O)N[C@@H](CC(C)C)C(=O)N[C@@H](CO)C(=O)N[C@@H](CC(C)C)C(=O)N[C@@H](CC(=O)O)C(=O)N[C@@H](C(=O)N1CCC[C@H]1C(=O)N[C@H](C(=O)N[C@@H](CCCCN)C(=O)N[C@@H](CC(C)C)C(=O)N[C@@H](CCCCNC(=O)COCCOCCNC(=O)COCCOCCNC(=O)CC[C@H](NC(=O)CCCCCCCCCCCCCCCCCCC(=O)O)C(=O)O)C(=O)N[C@@H](CCCCN)C(=O)N[C@H](C(=O)N[C@@H](CC(C)C)C(=O)N[C@@H](CC(C)C)C(=O)N[C@@H](CCC(=O)O)C(=O)N[C@@H](CCC(N)=O)C(=O)N[C@@H](CCC(=O)O)C(=O)N[C@@H](CCCCN)C(=O)N[C@@H](CCC(N)=O)C(=O)N[C@@H](CCCCN)C(=O)NC(C)(C)C(=O)N[C@@H](CCC(N)=O)C(=O)N[C@@H](CCCNC(=N)N)C(=O)N[C@@H](CCC(=O)O)C(=O)N[C@@H](CCC(N)=O)C(=O)N[C@@H](C)C(=O)N[C@@H](CCC(=O)O)C(=O)N[C@H](C(=O)N[C@@H](CC(N)=O)C(=O)NC(C)(C)C(=O)N[C@@H](CCC(N)=O)C(=O)N[C@H](C(=O)N[C@@H](CC(C)C)C(=O)N[C@@H](C)C(=O)N[C@@H](CCC(N)=O)C(=O)N[C@H](C(N)=O)C(C)C)[C@@H](C)CC)[C@@H](C)O)[C@@H](C)CC)[C@@H](C)CC)C(C)C)C(C)C [compound 239] (H-[NMeI]VLSLD[dV]PIKLK([AEEA-AEEA-γGlu-C20 diacid])KILLEQEKQK[Aib]QREQAETN[Aib]QILAQV-NH2) | 0.11 | 0 | > 250 | 2.6% | 0.0 |
